From patent publication US4983597A, “Beta-lactams as anticholesterolemic agents” (Merck & Co., Inc., priority 1989, dated 1991)

Target: T1, HMG-CoA synthase (Rattus norvegicus, UniProt P17425)
T1 construct: The livers from male Charles River CD rats (225-350 g) were homogenized; from tissue; host or cells: rat liver (male Charles River CD rats), 100,000 x g supernatant, ammonium sulfate and DEAE-52 fraction
T1 sequence (P17425 1-520): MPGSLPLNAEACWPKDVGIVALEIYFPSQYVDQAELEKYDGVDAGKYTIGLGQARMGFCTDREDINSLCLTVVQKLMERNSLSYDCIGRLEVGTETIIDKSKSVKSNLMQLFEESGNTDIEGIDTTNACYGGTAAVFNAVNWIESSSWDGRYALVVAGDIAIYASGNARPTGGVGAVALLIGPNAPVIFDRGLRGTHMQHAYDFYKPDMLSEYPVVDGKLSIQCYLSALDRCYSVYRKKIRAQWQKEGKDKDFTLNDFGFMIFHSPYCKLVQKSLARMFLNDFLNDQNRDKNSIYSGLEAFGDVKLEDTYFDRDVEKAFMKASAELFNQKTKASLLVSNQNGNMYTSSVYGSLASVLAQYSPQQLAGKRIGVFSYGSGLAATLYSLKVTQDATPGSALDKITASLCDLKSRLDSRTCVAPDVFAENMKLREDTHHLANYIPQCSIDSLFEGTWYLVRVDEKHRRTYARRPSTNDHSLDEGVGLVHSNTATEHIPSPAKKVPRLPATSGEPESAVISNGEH
Assay: HMG-CoA Synthase Inhibition Assay
Type: biochemical
Details: Table I; rat liver enzyme, 1-[14C]-acetyl-CoA incorporation
Experimental: The intrinisic HMG-CoA synthase inhibition activity of the compounds of this invention is measured by the standard in vitro protocol described below:
The livers from male Charles River CD rats (225-350 g) were homogenized in 0.25 M sucrose which was adjusted with phenylmethylsulfonylfluoride (PMSF) and N-p-tosyl-1-lysine chloromethyl ketone (TLCK) so that the final concentration of each was […], respectively. The homogenate was centrifuged at 15,000× g for 20 minutes, the supernatant filtered through a fine nylon screen to remove most of the fat layer and recentrifuged at 100,000× g for 1 hour. This supernatant was removed and 1 M potassium phosphate, dithiothreitol (DTT) and ethylene glycolbis(β-aminoethyl ether)-N,N,N',N'-tetraacetic acid (EGTA) added to give a final concentration of 0.1 M (pH 7.2), 0.5 mM and 0.1 mM, respectively. Solid ammonium sulfate was added to 50% saturation to the protein solution, it was centrifuged at 15,000× g and the supernatant discarded. This precipitated protein could be stored at -70° C. for at least one month with very little loss of activity. The ammonium sulfate precipitate was dissolved in an minimal amount of 0.06 M potassium phosphate buffer (pH 7.2) containing 0.5 mM dithiothreitol and 0.1 mM EGTA (referred to as 0.06 M phosphate buffer) and dialyzed overnight against 2 liters of the same buffer to remove the ammonium sulfate and to inactivate HMG-CoA lyase [Clinkenbeard, et al., J. Biol. Chem. 250, 3108-3116(1975)].
The dialyzed extract was added to a column of DEAE-52 (Whatman) which had been equilibrated with 0.06 M phosphate buffer (10 mg of protein in 1 ml bed volume of the resin). The DEAE-cellulose was eluted with 0.06 M phosphate buffer until the optical density at 280 nm was essentially zero. This fraction contained the β-ketoacetyl-CoA thiolase activity. The HMG-CoA synthase was eluted from the column with 0.1 M phosphate buffer (pH 7.2) containing 0.5 mM DTT and […] EGTA, and was virtually free of all thiolase activity. The protein was precipitated by the addition of ammonium sulfate to give 50% saturation. This solution was stirred for 10 minutes at 4° C. and the precipitate collected by centrifugation at 15,000 rpm for 10 minutes. The supernatant was discarded and the precipitate dissolved in a minimum of 0.06 M phosphate buffer, pH 7.2 (about 10 ml) and the enzyme stored at -80° C.
HMG-CoA Synthase Inhibition Assay
Enzyme protein (ca. 24 mg) was added to a solution containing […] Tris-HCl (pH 8.0), 11.7 μM MgCl2, 1.17 μM ethylenediaminetetraacetic acid (EDTA), 0.58 μM dithiothreitol, and the indicated concentrations of the test compound (added as a 2 mg/ml solution in dimethylsulfoxide). The incubation took place in a volume of 0.085 ml at 30° in a shaking water bath. After 5 minutes, […] of a solution containing acetoacetyl-CoA and 0.1 μCi of 1-[^14 C]-acetyl-CoA was added to give a final concentrations of 0.1 and 0.4 μM, respectively. The incubation was continued for 10 more minutes and the reaction stopped by the addition of […] of the assay mixture to 0.2 ml of 6N HCl in a glass scintillation vial. The vial was heated for 1 hour at 120° after which time 0.2 ml more of 6N HCl was again added to each vial and the heating continued for another hour. Following this, 1.0 ml of 0.9% saline was added to each vial and finally 10 ml of scintillation liquid. Radioactivity was determined in a Packard Tri-Carb liquid scintillation counter. Percent inhibition is calculated by the formula: [formula]
IC50 values were determined by plotting the log of the concentration of the test compound verses the percentage inhibition and fitting a straight line to the resulting data by using the least squares method.

Compound	IC50 [nM]
CC[C@@H]1C(=O)N(S(=O)(=O)c2ccc(C)cc2)[C@@H]1COC(=O)c1ccsc1 (relative stereo) [Table I a]	710
COc1ccc(C(=O)OC[C@@H]2[C@H](CO)C(=O)N2S(=O)(=O)c2ccc(C)cc2)cc1 (relative stereo) [Table I aa]	180
CC[C@@H]1C(=O)N(S(=O)(=O)c2ccc(C)cc2)[C@@H]1COC(=O)c1cccc(NS(C)(=O)=O)c1 (relative stereo) [Table I b]	25
CC[C@@H]1C(=O)N(S(=O)(=O)c2ccc(C)cc2)[C@@H]1COC(=O)c1cccnc1 (relative stereo) [Table I bb]	64
CC[C@@H]1C(=O)N(S(=O)(=O)c2ccc(C)cc2)[C@@H]1COC(=O)c1ccccc1[N+](=O)[O-] (relative stereo) [Table I c]	23
CC[C@@H]1C(=O)N(S(=O)(=O)c2ccc(C)cc2)[C@@H]1COC(=O)c1ccc(OC)cc1 (relative stereo) [Table I cc]	30
CC[C@@H]1C(=O)N(S(=O)(=O)c2ccc(C)cc2)[C@@H]1COC(=O)c1ccncc1 (relative stereo) [Table I d]	62
CC[C@@H]1C(=O)N(S(=O)(=O)c2ccc(C)cc2)[C@@H]1COC(=O)c1ccccc1 (relative stereo) [Table I dd]	110
CC[C@@H]1C(=O)N(S(=O)(=O)c2ccc(C)cc2)[C@@H]1COC(=O)c1ccccn1 (relative stereo) [Table I e]	54
CC[C@@H]1C(=O)N(S(=O)(=O)c2ccc(C)cc2)[C@@H]1COC(=O)c1cc2ccccc2oc1=O (relative stereo) [Table I ee]	50
CC[C@@H]1C(=O)N(S(=O)(=O)c2ccc(C)cc2)[C@@H]1COC(=O)c1ccc(OC)nc1 (relative stereo) [Table I f]	41
CC[C@@H]1C(=O)N(S(=O)(=O)c2ccc(C)cc2)[C@@H]1COC(=O)c1cc2ccccc2o1 (relative stereo) [Table I ff]	33
CC[C@@H]1C(=O)N(S(=O)(=O)c2ccc(C)cc2)[C@@H]1COC(=O)c1ccco1 (relative stereo) [Table I g]	7.9
CCCCc1ccc(C(=O)OC[C@@H]2[C@H](CC)C(=O)N2S(=O)(=O)c2ccc(C)cc2)nc1 (relative stereo) [Table I h]	45
COc1ccc(C(=O)OC[C@@H]2[C@H](C(C)C)C(=O)N2S(=O)(=O)c2ccc(C)cc2)cc1 (relative stereo) [Table I hh]	130
CC[C@@H]1C(=O)N(S(=O)(=O)c2ccc(C)cc2)[C@@H]1COC(=O)c1ccc(C(=O)OC)cc1 (relative stereo) [Table I ii]	8.5
CCCCNC(=O)c1ccc(C(=O)OC[C@@H]2[C@H](CC)C(=O)N2S(=O)(=O)c2ccc(C)cc2)cc1 (relative stereo) [Table I jj]	20
CC[C@@H]1C(=O)N(S(=O)(=O)c2ccc(C)cc2)[C@@H]1COC(=O)c1cccc([N+](=O)[O-])c1 (relative stereo) [Table I k]	39
CC[C@@H]1C(=O)N(S(=O)(=O)c2ccc(C)cc2)[C@@H]1COC(=O)c1ccc(N)cc1 (relative stereo) [Table I kk]	47
CC[C@@H]1C(=O)N(S(=O)(=O)c2ccc(C)cc2)[C@@H]1COC(=O)c1ccccc1NS(C)(=O)=O (relative stereo) [Table I l]	31

Compound	IC50 [nM]
C=CCOc1c(OC)cc(C(=O)OC[C@@H]2[C@H](CC)C(=O)N2S(=O)(=O)c2ccc(C)cc2)cc1[N+](=O)[O-] (relative stereo) [Table I ll]	160
CC[C@@H]1C(=O)N(S(=O)(=O)c2ccc(C)cc2)[C@@H]1COC(=O)c1ccnnc1 (relative stereo) [Table I m]	82
C=CCOc1c(NC(C)=O)cc(C(=O)OC[C@@H]2[C@H](CC)C(=O)N2S(=O)(=O)c2ccc(C)cc2)cc1OC (relative stereo) [Table I mm]	300
CC[C@@H]1C(=O)N(S(=O)(=O)c2ccc(C)cc2)[C@@H]1COC(=O)c1ccccc1N (relative stereo) [Table I n]	31
CC[C@@H]1C(=O)N(S(=O)(=O)c2ccc(C)cc2)[C@@H]1COC(=O)c1ccc(NS(C)(=O)=O)cc1 (relative stereo) [Table I nn]	16
CC[C@@H]1C(=O)N(S(=O)(=O)c2ccc(C)cc2)[C@@H]1COC(=O)c1ccoc1 (relative stereo) [Table I o]	320
CC[C@@H]1C(=O)N(S(=O)(=O)c2ccc(C)cc2)[C@@H]1COC(=O)c1cnc(OC)c(OC)c1 (relative stereo) [Table I oo]	38
CC[C@@H]1C(=O)N(S(=O)(=O)c2ccc(C)cc2)[C@@H]1COC(=O)c1ccc2ccccc2n1 (relative stereo) [Table I p]	21
CC[C@@H]1C(=O)N(S(=O)(=O)c2ccc(C)cc2)[C@@H]1COC(=O)c1ccc(OC)c(OC)n1 (relative stereo) [Table I pp]	89
CC[C@@H]1C(=O)N(S(=O)(=O)c2ccc(C)cc2)[C@@H]1COC(=O)c1ccc(OCc2ccccc2)cc1 (relative stereo) [Table I q]	40
CC[C@@H]1C(=O)N(S(=O)(=O)c2ccc(C)cc2)[C@@H]1COC(=O)c1csc(OC)n1 (relative stereo) [Table I qq]	45
CC[C@@H]1C(=O)N(S(=O)(=O)c2ccc(C)cc2)[C@@H]1COC(=O)c1ccnc2ccccc12 (relative stereo) [Table I r]	25
CCC[C@@H]1C(=O)N(S(=O)(=O)c2ccc(C)cc2)[C@H]1COC(=O)c1ccc(OC)cc1 (relative stereo) [Table I rr]	35
CC[C@@H]1C(=O)N(S(=O)(=O)c2ccc(C)cc2)[C@@H]1COC(=O)c1cccs1 (relative stereo) [Table I s]	38
COc1ccc(C(=O)OC[C@H]2[C@H](CO)C(=O)N2S(=O)(=O)c2ccc(C)cc2)cc1 (relative stereo) [Table I ss]	150
CC[C@@H]1C(=O)N(S(=O)(=O)c2ccc(C)cc2)[C@@H]1COC(=O)c1cccnc1Oc1ccccc1 (relative stereo) [Table I t]	33
CC[C@@H]1C(=O)N(S(=O)(=O)c2ccc(C)cc2)[C@H]1COC(=O)c1ccc(OC)cc1 (relative stereo) [Table I tt]	170
CC[C@@H]1C(=O)N(S(=O)(=O)c2ccc(C)cc2)[C@@H]1COC(=O)c1cccc(NC(C)=O)c1 (relative stereo) [Table I u]	72
CC[C@@H]1C(=O)N(S(=O)(=O)c2ccc(C)cc2)[C@@H]1COC(=O)c1cccc(N)c1 (relative stereo) [Table I v]	45
CC[C@@H]1C(=O)N(S(=O)(=O)c2ccc(C)cc2)[C@@H]1COC(=O)c1ccc(C(=O)OC(c2ccccc2)c2ccccc2)cc1 (relative stereo) [Table I w]	62
